Among the data in patent US10544112B2, “Identification of ebsulfur analogues with broad-spectrum antifungal activity” (priority 2017, dated 2020) are MIC-2, MIC-0 and MIC values, retold here.

Converted amounts (≈) assume the structure as drawn. Marks after values point to notes of the source that are not given here. Where only a bound is given, the exact number is not on record here.

The subject of experiment [1] is C. albicans ATCC MYA-1237(R) (strain F). Conditions: azoles, previously reported (Shrestha 2015); cited from earlier work.
The subject of experiment [2] is C. albicans ATCC 90819(R) (strain D). The note with it: azoles, previously reported (Shrestha 2015); cited from earlier work.
The test system of experiment [3] is Aspergillus nidulans ATCC 38163 (strain L). The note with it: azoles, previously reported (Shrestha 2015); cited from earlier work.
Experiment [4] relates to Candida albicans ATCC 10231 (strain A). The note with it: azoles, previously reported (Shrestha 2015); cited from earlier work.
The test system of experiment [5] is Aspergillus terreus ATCC MYA-3633 (strain M). The experiment in a line: Antifungal MIC determination, filamentous fungi spores. The experiment is classed as cell-based. Conditions: Aspergillus terreus; strain M; all compounds; spores; read-out: MIC-0. The gist of the method: (§1)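 CLSI M27-A3 microdilution, modified; RPMI 1640/0.165 M MOPS pH 7.0; final drug 12.5-0.02 μg/mL (2-fold series), inoculum 5×10^3 CFU/mL; 48 h, 35° C. Aspergillus: spores from 3-5 day PDA cultures at 25° C, tested likewise.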

In experiment [6] the test system is Aspergillus flavus ATCC MYA-3631 (strain K). Described as above. The experiment is classed as cell-based. Conditions: Aspergillus flavus, all compounds, read-out: MIC-0. An outline of the steps: as §1
In experiment [7] the test system is C. albicans ATCC MYA-2876(S) (strain C). Conditions: azoles, previously reported (Shrestha 2015); cited from earlier work.
Experiment [8] has as its system C. albicans ATCC 64124 (strain B). The note with it: azoles, previously reported (Shrestha 2015); cited from earlier work.
Experiment [9] deals with Candida parapsilosis ATCC 22019 (strain J). The experiment in a line: Antifungal MIC determination (CLSI M27-A3, 96-well). The experiment is classed as cell-based. Conditions: Lodderomyces parapsilosis, ATCC22019; strain J; azoles; read-out: MIC-2. An outline of the steps: (§2)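 A modified CLSI M27-A3 protocol is used, with final compound levels from 12.5 to 0.02 μg/mL in two-fold steps. Cells are incubated at 5×10^3 CFU/mL in buffered RPMI 1640 at 35° C for 48 h.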

The subject of experiment [10] is Candida krusei ATCC 6258 (strain I). The experiment is described as above. The note with it: Pichia kudriavzevii, ATCC6258; strain I; azoles; read-out: MIC-2. Type of experiment: cell-based. The gist of the method: as §2
Experiment [11] relates to Candida glabrata ATCC 2001 (strain H). The description is as above. The experiment is classed as cell-based. The note with it: Nakaseomyces glabratus, ATCC2001; strain H; azoles; read-out: MIC-2. An outline of the steps:
as §2

Experiment [12] concerns C. albicans ATCC MYA-1003(R) (strain G). Conditions: azoles, previously reported (Shrestha 2015); cited from earlier work.
The subject of experiment [13] is C. albicans ATCC MYA-2310(S) (strain E). The note with it: azoles, previously reported (Shrestha 2015); cited from earlier work.

For `CC[C@@H]([C@H](C)O)n1ncn(-c2ccc(N3CCN(c4ccc(OC[C@@H]5CO[C@@](Cn6cncn6)(c6ccc(F)cc6F)C5)cc4)CC3)cc2)c1=O` [POS, posaconazole], the MIC-2 in experiment [1] is 15.6^a μg/mL; in [2], 31.2^a μg/mL; in experiment [4] it was 0.5^a μg/mL; in [7], 7.8a μg/mL; in experiment [8], >62.5^a μg/mL; in [12] it was 15.6^a μg/mL. In experiment [13], the MIC-2 is 31.2^a μg/mL. Further, in experiment [3], the MIC-0 was 0.195^a μg/mL. In addition, the minimal inhibitory concentration (MIC) (as a rule, the smallest concentration in the dilution series that meets the test's criterion for growth inhibition) was 0.48 µg/mL (≈ 0.685 µM) in experiment [5]; 0.24 µg/mL (≈ 0.342 µM) in experiment [6]; under 0.03 µg/mL in [9]; 0.06 µg/mL (≈ 0.0856 µM) in [10]; 0.12 µg/mL (≈ 0.171 µM) in experiment [11].

Take `OC(Cn1cncn1)(Cn1cncn1)c1ccc(F)cc1F` [FLC, fluconazole]: the MIC-2 in [1] is listed as 62.5^a μg/mL; in experiment [2], >125^a μg/mL; in [4] it was 62.5^a μg/mL; in [7], 15.6^a μg/mL; in [8] it was >125^a μg/mL; in experiment [12], 62.5^a μg/mL. Further, the MIC-2 in experiment [13] is reported as >125^a μg/mL. Also, the MIC-0 in [3] was 6.25^a μg/mL. Also, the MIC in experiment [6] was 6.25 µg/mL (≈ 20.4 µM); in [9], 1.95 µg/mL (≈ 6.37 µM); in experiment [10] it was over 31.2 µg/mL; in experiment [11], over 31.2 µg/mL.
